“Also recorded” adds a separate entry of the source.
Columns and labels:
E. coli NCM372 = assay: E. coli growth with 12a supplementation; assay type: cell-based, Escherichia coli
Method: (§1) FIG. 7: Bioactivity of farnesoic diacid. FIG. 7(a): E. coli NCM372 was grown to an optical density (OD600) of around 0.2, where either 12a in DMSO was added to final concentration of 10 μM (+) or DMSO was added (−). Three biological replicates are shown, and statistical significance using an unpaired t test is shown. FIG. 7(b): Immortalized baby mouse kidney (iBMK) cells were grown, either non-activated (D3) or Ras-activated (Ras). 12a in DMSO was added to final concentration of 10 μM (+) or DMSO was added (−). Three biological replicates are shown, and statistical significance using an unpaired t test is shown.
We supplemented cultures with 12a to a final concentration of 10 μM and monitored growth in both Escherichia coli (FIG. 6a) and mammalian cell lines (FIG. 6b). […] These findings provide evidence that farnesoic diacid and potentially our other newly discovered bifunctional terpenoids may have distinct bioactivities across diverse biological contexts, with applications in more efficient cultivation of microbes and selective activity against certain mammalian cells. As the longer bifunctional terpenoids (C25-C30) resemble oxylipin and polyunsaturated fatty acids, which are implicated in immunity and obesity, we reason that bioactivity may be related to lipid metabolism in mammalian systems that will be relevant in pharmaceutical contexts. Furthermore, the shorter bifunctional terpenoids (C15-C20) and their preceding biosynthetic intermediates resemble inhibitors of insect development, such as juvenile hormones, these molecules may serve as scaffolds for insecticide drug activity to target insect development. Further research on the novel molecules will illuminate more bioactivities on humans, human cells, research animals, plants, insects, and microorganisms.

[1] = system: Immortalized baby mouse kidney (iBMK) cells, Ras-activated (Ras); assay: iBMK cell growth with 12a, Ras-activated (Ras); assay type: cell-based
Method: as §1
(§2) We supplemented cultures with 12a to a final concentration of 10 μM and monitored growth in both Escherichia coli (FIG. 6a) and mammalian cell lines (FIG. 6b). […] These findings provide evidence that farnesoic diacid and potentially our other newly discovered bifunctional terpenoids may have distinct bioactivities across diverse biological contexts, with applications in more efficient cultivation of microbes and selective activity against certain mammalian cells. As the longer bifunctional terpenoids (C25-C30) resemble oxylipin and polyunsaturated fatty acids, which are implicated in immunity and obesity, we reason that bioactivity may be related to lipid metabolism in mammalian systems that will be relevant in pharmaceutical contexts. […]

[2] = system: Immortalized baby mouse kidney (iBMK) cells, non-activated (D3); assay: iBMK cell growth with 12a, non-activated (D3); assay type: cell-based
Method: as §1, §2

[3] = 12a 10 μM vs DMSO, 3 biological replicates

SMILES: C/C(=C\CC/C(C)=C/C(=O)O)CC/C=C(\C)C(=O)O [12a, farnesoic diacid]
- microbial cells grew faster with treatment (E. coli NCM372; 12a 10 μM in DMSO vs DMSO, added at OD600 around 0.2, 3 biological replicates): ~10%
- final optical density (E. coli NCM372; 12a 10 μM vs DMSO): higher final optical density
- microbial growth rate / cell growth (E. coli NCM372; 12a 10 μM vs DMSO): increases microbial cell growth; also recorded: increased microbial growth rate
- total biomass content (E. coli NCM372; farnesoic diacid treatment, FIG. 7): increased
- proliferation / cell growth ([1]; 12a 10 μM): decreases mammalian (cancer-like) cell growth; also recorded: modest decrease in proliferation
- cancer-like cell lines grew slower with treatment [1, 3]: ~10%
- proliferation / cell growth ([2]; 12a 10 μM): decreases mammalian (cancer-like) cell growth; also recorded: modest decrease in proliferation
- cancer-like cell lines grew slower with treatment [2, 3]: ~10%
